Laboratory results reported in patent publication US5322928A, “Diapause hormone isolated from silkworm exhibiting improved diapause activity” (Shionogi Seiyaku Kabushiki Kaisha, priority 1991, dated 1994).
Where no end group is shown, it is not given here.

System: silkworm non-diapause strain (N4 line) pupa
Assay: Assay of bioactivity: specimen injected into 4 days-age pupa of non-diapause strain, percentage of laid eggs that diapause
Type: in vivo, silkworm (Bombyx mori)
Settings: qualitative
Experimental: The hormonal activity was confirmed by the following method: the specimen is injected into the 4 days-age pupa of non-diapause strain. After the pupa transforms into a imago, copulates, and lays eggs, it is investigated whether or not the eggs diapause without embryogenesis. […] In case that the specimen has the hormonal activity, the color of the eggs becomes blackish-brown which is not observed in non-diapausing eggs. […] The hormonal activity is determined by calculating what percentage of the eggs laid by one imago diapauses. One diapause hormone unit is the amount of the hormone which make 50% of the laid eggs diapause. In this invention, the isolated diapause hormone was 0.1 ng/unit.

| Substance | diapause hormone activity (hormonal activity in bioassay) |
| --- | --- |
| TDMKDESDRGAHSERGALWFGPRL-NH2 [amino acid 19 is Trp] | have diapause activity |
| TDMKDESDRGAHSERGALCFGPRL-NH2 [amino acid 19 is Cys] | have diapause activity |
